Assay results from patent US10618918B2, “Substituted boronic acids as antimicrobials” (priority 2015, dated 2020).
Read-outs that look alike come from different tables or passages of the source.

Experiments:
[1] = tested on: KP1004 KPC-2; experiment: Biapenem potentiation (MPC@1), strain KP1004 KPC-2; type: cell-based; conditions: minimum BLI concentration inhibiting growth with biapenem 1 μg/mL; tested up to 40 μg/mL
Description: (§1) Biapenem was present in the test medium at 1 μg/mL. […] Table 3 summarizes the BLI potency of biapenem potentiation (MPC@1) for two strains overexpressing class A (KPC) and class D (OXA-48) carbapenemases. Biapenem MIC for each strain is also shown.

[2] = tested on: KP1086 OXA-48; experiment: Biapenem potentiation (MPC@1), strain KP1086 OXA-48; type: cell-based; conditions: minimum BLI concentration inhibiting growth with biapenem 1 μg/mL; tested up to 40 μg/mL
Description: as §1

[3] = tested on: AB1053 OXA-72; experiment: Meropenem potentiation (MPC@8), strain AB1053 OXA-72; type: cell-based, Acinetobacter baumannii; conditions: minimum BLI concentration inhibiting growth with meropenem 8 μg/mL; tested up to 20 μg/mL
[4] = tested on: AB1054 OXA-23; experiment: Meropenem potentiation (MPC@8), strain AB1054 OXA-23; type: cell-based, Acinetobacter baumannii; conditions: minimum BLI concentration inhibiting growth with meropenem 8 μg/mL; tested up to 20 μg/mL
[5] = target: T1, purified class A, C and D enzymes (β-lactamases) (Acinetobacter baumannii, UniProt Q9L4P2); experiment: biochemical; type: biochemical; conditions: purified OXA-23; nitrocefin (NCF) as reporter substrate
T1 construct: rows headed: Ki (OXA-23, NCF), uM; other: purified OXA-23; nitrocefin (NCF) as reporter substrate

[6] = target: purified class A, C and D enzymes (β-lactamases) (Enterobacter cloacae, UniProt P05364); experiment: biochemical; type: biochemical
[7] = target: purified class A, C and D enzymes (β-lactamases) (Escherichia coli, UniProt Q9L5C7); experiment: biochemical; type: biochemical; conditions: purified CTX-M-14; nitrocefin (NCF) as reporter substrate
[8] = target: purified class A, C and D enzymes (β-lactamases) (Klebsiella pneumoniae, UniProt Q6XEC0); experiment: biochemical; type: biochemical; conditions: purified OXA-48; nitrocefin (NCF) as reporter substrate
[9] = target: purified class A, C and D enzymes (β-lactamases) (Klebsiella pneumoniae, UniProt Q9F663); experiment: biochemical; type: biochemical; conditions: purified KPC-2; nitrocefin (NCF) as reporter substrate
[10] = target: T2, purified class A, C and D enzymes (β-lactamases) (Pseudomonas aeruginosa, UniProt P24735); experiment: biochemical; type: biochemical
T2 construct: rows headed: Ki (Pa-AmpC, NCF), uM; other: purified Pa-AmpC; nitrocefin (NCF) as reporter substrate

[11] = target: T3, purified class A, C and D enzymes (β-lactamases) (UniProt P0AD64, L31Q/G234S/E235K, species not given); experiment: biochemical; type: biochemical
T3 construct: Ki (SHV-12, NCF), uM; other: purified SHV-12; nitrocefin (NCF) as reporter substrate
T3 sequence (P0AD64 1-286 L31Q/G234S/E235K): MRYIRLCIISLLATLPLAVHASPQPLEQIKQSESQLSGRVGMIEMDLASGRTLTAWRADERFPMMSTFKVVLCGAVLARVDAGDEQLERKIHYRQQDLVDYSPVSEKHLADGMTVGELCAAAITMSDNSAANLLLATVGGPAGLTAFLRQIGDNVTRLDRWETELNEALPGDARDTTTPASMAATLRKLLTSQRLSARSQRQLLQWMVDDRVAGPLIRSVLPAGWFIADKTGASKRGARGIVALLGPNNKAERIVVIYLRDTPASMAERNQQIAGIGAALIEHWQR

[12] = tested on: ECL1002; experiment: Aztreonam potentiation (MPC@4), strain ECL1002; conditions: minimum BLI concentration inhibiting growth with aztreonam 4 μg/mL; tested up to 40 μg/mL
[13] = tested on: ec308 SHV-5; experiment: Aztreonam potentiation (MPC@4), strain ec308 SHV-5; conditions: minimum BLI concentration inhibiting growth with aztreonam 4 μg/mL; tested up to 40 μg/mL
[14] = tested on: ec302 TEM-10; experiment: Aztreonam potentiation (MPC@4), strain ec302 TEM-10; conditions: minimum BLI concentration inhibiting growth with aztreonam 4 μg/mL; tested up to 40 μg/mL
[15] = tested on: KP1004 KPC-2; experiment: Aztreonam potentiation (MPC@4), strain KP1004 KPC-2; conditions: minimum BLI concentration inhibiting growth with aztreonam 4 μg/mL; tested up to 40 μg/mL
[16] = tested on: EC1010 CMY-6; experiment: Aztreonam potentiation (MPC@4), strain EC1010 CMY-6; conditions: minimum BLI concentration inhibiting growth with aztreonam 4 μg/mL; tested up to 40 μg/mL
[17] = tested on: KP1010 SHV-12; experiment: Aztreonam potentiation (MPC@4), strain KP1010 SHV-12; conditions: minimum BLI concentration inhibiting growth with aztreonam 4 μg/mL; tested up to 40 μg/mL
[18] = tested on: KP1009 CTX-M-15; experiment: Aztreonam potentiation (MPC@4), strain KP1009 CTX-M-15; conditions: minimum BLI concentration inhibiting growth with aztreonam 4 μg/mL; tested up to 40 μg/mL
[19] = tested on: KP1005 CTX-M-14; experiment: Tigemonam potentiation (MPC@4), strain KP1005 CTX-M-14; conditions: minimum BLI concentration inhibiting growth with tigemonam 4 μg/mL; tested up to 40 μg/mL
[20] = read-out: Ki (SHV-12, NCF); purified SHV-12; nitrocefin (NCF) as reporter substrate

T1 sequence (Q9L4P2 whole entry): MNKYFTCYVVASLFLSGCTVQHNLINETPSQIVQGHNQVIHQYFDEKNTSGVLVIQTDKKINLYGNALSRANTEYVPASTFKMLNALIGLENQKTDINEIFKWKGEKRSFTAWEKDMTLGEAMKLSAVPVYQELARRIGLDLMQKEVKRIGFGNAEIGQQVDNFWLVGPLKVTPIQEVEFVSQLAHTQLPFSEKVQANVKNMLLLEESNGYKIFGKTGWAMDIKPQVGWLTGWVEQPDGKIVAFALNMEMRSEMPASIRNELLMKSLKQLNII
purified class A, C and D enzymes (β-lactamases) (Escherichia coli, UniProt Q9L5C7), sequence (Q9L5C7 entry or part of it): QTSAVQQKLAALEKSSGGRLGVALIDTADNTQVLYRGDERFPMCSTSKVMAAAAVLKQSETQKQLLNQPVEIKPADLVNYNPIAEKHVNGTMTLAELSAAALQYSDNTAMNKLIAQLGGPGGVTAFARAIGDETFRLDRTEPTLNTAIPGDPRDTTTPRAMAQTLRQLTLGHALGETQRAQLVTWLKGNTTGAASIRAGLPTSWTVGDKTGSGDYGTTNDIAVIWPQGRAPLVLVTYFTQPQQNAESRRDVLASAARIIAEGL
T2 sequence (P24735 whole entry): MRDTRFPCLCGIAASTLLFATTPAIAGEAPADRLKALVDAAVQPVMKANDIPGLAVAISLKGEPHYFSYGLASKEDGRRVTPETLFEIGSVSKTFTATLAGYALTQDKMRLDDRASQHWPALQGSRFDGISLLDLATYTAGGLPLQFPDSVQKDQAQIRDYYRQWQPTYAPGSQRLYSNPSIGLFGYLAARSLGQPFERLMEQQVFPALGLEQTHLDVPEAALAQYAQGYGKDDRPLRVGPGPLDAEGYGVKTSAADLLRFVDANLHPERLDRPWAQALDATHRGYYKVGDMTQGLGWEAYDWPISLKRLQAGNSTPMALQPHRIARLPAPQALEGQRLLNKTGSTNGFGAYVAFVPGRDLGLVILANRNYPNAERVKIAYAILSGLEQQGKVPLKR
purified class A, C and D enzymes (β-lactamases) (Enterobacter cloacae, UniProt P05364), sequence (P05364 21-381): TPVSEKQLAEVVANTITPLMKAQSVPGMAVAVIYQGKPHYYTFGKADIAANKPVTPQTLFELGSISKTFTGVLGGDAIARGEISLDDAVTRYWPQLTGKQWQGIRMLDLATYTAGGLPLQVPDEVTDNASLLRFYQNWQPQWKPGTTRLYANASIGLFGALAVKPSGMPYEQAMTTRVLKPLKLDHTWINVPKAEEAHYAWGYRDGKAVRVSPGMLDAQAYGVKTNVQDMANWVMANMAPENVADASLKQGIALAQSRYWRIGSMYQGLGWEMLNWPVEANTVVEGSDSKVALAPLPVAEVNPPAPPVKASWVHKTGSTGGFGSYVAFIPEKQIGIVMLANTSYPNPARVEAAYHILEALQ

SMILES	BPM MPC1 KP1004 KPC-2 [1]	BPM MPC1 OXA-48 KP1086 [2]	MPM MPC8 AB1053 OXA-72 [3]	MPM MPC8 AB1054 OXA-23 [4]	Ki [5]	Ki (P99, NCF), uM [6]	Ki (CTX-M-14, NCF), uM [7]	Ki (OXA-48, NCF), uM [8]	Ki (KPC-2, NCF), uM [9]	Ki [10]	Ki [11, 20]	AZT MPC4 ECL1002 [12]	AZT MPC4 SHV-5 ec308 [13]	AZT MPC4 TEM-10 ec302 [14]	AZT MPC4 KPC-2 KP1004 [15]	AZT MPC4 CMY-6 EC1010 [16]	AZT MPC4 SHV-12 KP1010 [17]	AZT MPC4 CTX-M-15 KP1009 [18]	TIG MPC4 CTX-M-14 KP1005 [19]	further results
NCCn1cc(COc2ccc3c(c2C(=O)O)O[B-](O)(O)CC3)nn1 [Compound 23, Disodium; 8-[[1-(2-aminoethyl)triazol-4-yl]methoxy]-4,4-dihydroxy-5-oxa-4-boranuidabicyclo[4.4.0]deca-1(6),7,9-triene-7-carboxylate]	X (X = MPC@1 ≤ 5 μg/mL)	X (X = MPC@1 ≤ 5 μg/mL)	X (X = MPC@1 ≤ 5 μg/mL)	X (X = MPC@1 ≤ 5 μg/mL)	< 100 nM	X (key: X = Ki ≤ 0.1 μM; Y = 0.1 μM < Ki ≤ 1 μM; Z = Ki > 1 μM)	X (X = Ki ≤ 0.1 μM)	X (X = Ki ≤ 0.1 μM)	X (X = Ki ≤ 0.1 μM)	< 100 nM	< 100 nM	X (X = MPC@4 ≤ 5 μg/mL)	Y (Y = 5 μg/mL < MPC@4 ≤ 20 μg/mL)	X (X = MPC@4 ≤ 5 μg/mL)	X (X = MPC@4 ≤ 5 μg/mL)	X (X = MPC@4 ≤ 5 μg/mL)	X (X = MPC@4 ≤ 5 μg/mL)	X (X = MPC@4 ≤ 5 μg/mL)	Z (Z = MPC@4 > 20 μg/mL)	–
C#CCOc1ccc2c(c1C(=O)O)OB(O)CC2 [Compound 25, 2-Hydroxy-7-prop-2-ynoxy-3,4-dihydro-1,2-benzoxaborinine-8-carboxylic acid]	X (X = MPC@1 ≤ 5 μg/mL)	X (X = MPC@1 ≤ 5 μg/mL)	X (X = MPC@1 ≤ 5 μg/mL)	X (X = MPC@1 ≤ 5 μg/mL)	< 100 nM	–	X (X = Ki ≤ 0.1 μM)	X (X = Ki ≤ 0.1 μM)	X (X = Ki ≤ 0.1 μM)	–	–	X (X = MPC@4 ≤ 5 μg/mL)	X (X = MPC@4 ≤ 5 μg/mL)	X (X = MPC@4 ≤ 5 μg/mL)	X (X = MPC@4 ≤ 5 μg/mL)	X (X = MPC@4 ≤ 5 μg/mL)	X (X = MPC@4 ≤ 5 μg/mL)	X (X = MPC@4 ≤ 5 μg/mL)	Z (Z = MPC@4 > 20 μg/mL)	Ki (P99, NCF), uM ([6]; purified P99, nitrocefin (NCF) as reporter substrate): X (X = Ki ≤ 0.1 μM); Ki ([10]; purified Pa-AmpC, nitrocefin (NCF) as reporter substrate, read-out: Ki (Pa-AmpC, NCF)): < 100 nM; Ki ([11]; purified SHV-12; nitrocefin (NCF) as reporter substrate; read-out: Ki (SHV-12, NCF)): < 100 nM
O=C([O-])c1c(OC(F)F)ccc2c1O[B-](O)(O)CC2.[Na+].[Na+] [Compound 56, Disodium; 8-(difluoromethoxy)-4,4-dihydroxy-5-oxa-4-boranuidabicyclo[4.4.0]deca-1(6),7,9-triene-7-carboxylate]	X (X = MPC@1 ≤ 5 μg/mL)	X (X = MPC@1 ≤ 5 μg/mL)	X (X = MPC@1 ≤ 5 μg/mL)	X (X = MPC@1 ≤ 5 μg/mL)	< 100 nM	X (key: X = Ki ≤ 0.1 μM; Y = 0.1 μM < Ki ≤ 1 μM; Z = Ki > 1 μM)	X (X = Ki ≤ 0.1 μM)	X (X = Ki ≤ 0.1 μM)	X (X = Ki ≤ 0.1 μM)	< 100 nM	< 100 nM	X (X = MPC@4 ≤ 5 μg/mL)	X (X = MPC@4 ≤ 5 μg/mL)	X (X = MPC@4 ≤ 5 μg/mL)	X (X = MPC@4 ≤ 5 μg/mL)	X (X = MPC@4 ≤ 5 μg/mL)	X (X = MPC@4 ≤ 5 μg/mL)	X (X = MPC@4 ≤ 5 μg/mL)	X (X = MPC@4 ≤ 5 μg/mL)	–
